Results on 2 compounds are retold here after patent US6455541B1, “Suppression, by 5-lipoxygenase inhibitors, of bone resorption” (Board of Regents, The University of Texas System, priority 1994, dated 2002).

In one assay the test system is neonatal mouse calvariae. The assay can be described thus: Neonatal mouse (murine) calvarial assay, 45Ca release. Format: cell-based. As for the experimental part:
The assay was performed as described by Gowen et al. (1983). Timed pregnant mice were injected with ^45Ca 2 days before parturition. Half-calvaria were removed from the 1-2-day-old pups and preincubated for 24 h in BGJb medium at 37° C. in a humidified atmosphere of 5% CO2 before transfer to fresh media with or without test substances for 48 h. The bones were incubated for a further 72 h and media and bones collected. Bone-resorbing activity was expressed as the percentage of the total ^45Ca released into the medium.

The test system of another assay is isolated rat osteoclasts. The assay can be described thus: Disaggregated rat osteoclast pit formation assay on sperm whale dentine. The assay is classed as cell-based. The settings on record: NDGA 10^−6M, MK886 1 μg/ml, ZM 230,487 10 ng/ml. As for the experimental part: (§1) Quantitation of the effects of isolated osteoclasts on calcified matrices was determined using minor modifications of the disaggregated osteoclast resorption assay as described by Boyde et al. (1984). Sperm whale dentine (0.25×7×7 mm) was prepared using a Buehler low speed diamond saw (Buehler, Lake Bluff, Ill.) followed by sonication (15 min) in several changes of distilled water. Slices were sterilized using ultraviolet light.
Neonatal Sprague-Dawley rats (2-3 days) were sacrificed by decapitation, the femurs and tibias were removed, scraped free of adherent tissue, and trimmed free of the epiphyses. The bones from one litter were combined and quickly minced using a scalpel blade in 2 ml of 199 medium and then vigorously mixed with a pipette in an 8-ml tube, allowed to settle for 10 s, and then 100 μl of the suspension was added to each well for a total of 16 wells in a 48-well microtiter plate containing sperm whale dentine (approximately four neonates are used per 16 wells). The cells were incubated at 37° C. for 30 min at which time the dentine was removed, washed in media, and placed in a fresh 48-well plate containing 250 μl of test medium.
(§2) Osteoclasts were stained for TRAP and counted and then pit numbers were counted following toluidine blue (0.1% w/v) staining by light microscopy. The plan area of matrix resorbed was quantitated using a computer-assisted morphometric program on a Bioquant System IV analysis system (R & M Biometrics, Nashville, Tenn.).
Quantitation of the effects of isolated neonatal rat osteoclasts on calcified matrices was determined using minor modifications of the disaggregated osteoclast resorption assay as described by Boyde et al (1984). Briefly rat osteoclasts isolated as described by Chambers et al. (1983) were dispersed on prewetted (AMEM plus 5% FBS) slices of sperm whale dentine. Cultures were performed in 48 well-microtiter plates in humidified air (10% CO2) at 37° C. in αMEM medium (one slice/well in 200 μl medium). Numbers of osteoclasts and resorption lacunae were quantitated as described above for the avian osteoclasts.

Another assay concerns C433 cells. The assay can be described thus: Production of osteoclast-stimulating activity by C433 cells (conditioned medium bioassayed for TRAP in avian osteoclasts). Format: cell-based, human. Particulars: flurbiprofen 10^−5 M; indomethacin 10^−6 M; nordihydroguaiaretic acid 10^−6, 10^−5 or 10^−4 M. How it is done: FIG. 3A, FIG. 3B, FIG. 3C and FIG. 3D. Chemical characterization of activity. FIG. 3A. C433-conditioned medium was treated with ultraviolet-light (UV) for 24 h or placed in a boiling water bath (100° C.) for 15 min and bioassayed. FIG. 3B. amino peptidase M (A), carboxypeptidase (C), or Pronase-CB (P) were incubated in the presence of C433-conditioned medium for 12 h at 37° C. FIG. 3C. […] The resultant conditioned medium was bioassayed for activity. FIG. 3D. […] Conditioned medium was bioassayed for induction of TRAP activity in avian osteoclasts.
C433 cells were grown in 10% fetal bovine serum (Whittaker, Walkersville, Md.) 50% RPMI, 50% McCoys (Flow, McLean, Va.) until a density of 10^4 cells/ml was obtained, at which time the cells were harvested, washed, and placed in serum-free DMEM plus 10^−8 M, 1,25-(OH)2D3 for 48 h before harvest of conditioned medium. […] This conditioned medium was applied to a prewetted C18 Sep-Pak (Millipore, Waters, Milford, Mass.), and bound material was extracted using ethyl acetate. This material was dried under nitrogen and resuspended in water, it acetic acid and analyzed by high pressure measure liquid chromatography (HPLC) (Waters, Milford, Mass.) applied to a C8 semipreparative 25 cm×10 mm reverse phase column (Keystone Scientific, Inc., Bellefonte, Pa.) at 2 ml/min. The gradient was 0-100% methanol, 1% acetic acid over 60 min with 6-ml fractions collected. The fractions were dried under nitrogen, and those fractions to be assayed for osteoclast stimulating activity were stabilized with 20 μl of 10% bovine serum albumin. Fractions to be used for gas chromatography-mass spectrometric analysis were prepared for derivatization.

Assay [1] concerns isolated 23C6+ human giant cells. The experiment in a line: Pit formation by isolated human giant cells on sperm whale dentine. Format: cell-based. The settings on record: 10^−10 M. How it is done:
as §1, §2
Human giant cell tumors (normally discarded after surgery) were minced and passed through 1#40SS wire mesh screen, allowed to settle for 5 min, and the cell suspension above the sediment collected. The cells were incubated with 23C6 monoclonal antibody that identifies the osteoclast vitronectin receptor (generously provided by Dr. Michael Horton) (1:10 dilution of hybridoma supernatant/10^6 cells) at 4° C. in serum-free medium for 30 min, after which immunomagnetic beads coated with anti-mouse IgG (Dynabead, Dynal, Inc., Great Neck, N.Y.) were added to the cell suspension. […]

The mark [2] stands for this setting: Lymphotoxin 5 × 10^−9M + NDGA 10^−5M.

Several values for one entry are separate records, joined by “and”; a condition that tells them apart may be missing. Identical values can stand only once. Entries after “also recorded” stand apart in the source; their conditions may differ. Like-named read-outs stand apart in the source and are kept apart here.

Take `CC(Cc1ccc(O)c(O)c1)C(C)Cc1ccc(O)c(O)c1` (stereo not drawn) [NDGA, nordihydroguaiaretic acid]: in the assay with neonatal mouse calvariae (1,25(OH)2 vitamin D3 as factor), the “inhibition of 1,25(OH)2 vitamin D3-induced bone resorption (in words)” value was “no significance was observed”. For the same compound, the “45Ca release, Factor + NDGA” value with neonatal mouse calvariae (1,25D3 10^−10M + NDGA 10^−5M) is 31.7% and 29.2% and 32.5%; with neonatal mouse calvariae (IL-1 5 × 10^−10M + NDGA 10^−5M), 23.4% and 24.6%; with neonatal mouse calvariae (setting [2]), 26.8% and 35.5%; with neonatal mouse calvariae (PTH 4 ng/ml + NDGA 10^−5M), 30.6% and 31.2% and 28.6%; in the assay on neonatal mouse calvariae (TNF 2 × 10^−10M + NDGA 10^−5M), 27.8% and 31.9%. Also, the “% Inhibition” value with neonatal mouse calvariae (1,25D3 10^−10M + NDGA 10^−5M) is 19.8% and 24.1%; in the assay on neonatal mouse calvariae (IL-1 5 × 10^−10M + NDGA 10^−5M), 32.8%; in the assay with neonatal mouse calvariae (setting [2]) it was 31.7%; in the assay on neonatal mouse calvariae (TNF 2 × 10^−10M + NDGA 10^−5M), 33.5%; in the assay on neonatal mouse calvariae (WR14 LPS 50 ng/ml + NDGA 10^−5M) it was 40.8%. For the same compound, the “Ca^45 Release, LPS + NDGA” value with neonatal mouse calvariae (AAY4 LPS 25 μg/ml + NDGA 10^−5M) was 13.6%. Besides, the “45Ca release, LPS + NDGA” value in the assay with neonatal mouse calvariae (AaY4 LPS 50 μg/ml + NDGA 10^−5M) is given as 22.2%. Moreover, the “inhibition of LPS-induced bone resorption (in words)” value in the assay with neonatal mouse calvariae (AaY4 LPS and/or WR14 LPS) is on record as “significantly inhibited; also recorded: Significant inhibition”. Moreover, the “inhibition of IL-1-induced bone resorption (in words)” value in the assay on neonatal mouse calvariae (IL-1 as factor) was “significantly inhibits”. Further, the inhibition at 10 µM in the assay on neonatal mouse calvariae (Mus musculus, 1,25D3 10^−10M + NDGA 10^−5M, read-out: % Inhibition) is 19.6%; in the assay on neonatal mouse calvariae (Mus musculus, AAY4 LPS 25 μg/ml + NDGA 10^−5M, read-out: % Inhibition), 120%; in the assay with neonatal mouse calvariae (Mus musculus, AaY4 LPS 50 μg/ml + NDGA 10^−5M, read-out: % Inhibition), 57.2%; in the assay on neonatal mouse calvariae (Mus musculus, IL-1 5 × 10^−10M + NDGA 10^−5M, read-out: % Inhibition), 30%; with neonatal mouse calvariae (Mus musculus, Lymphotoxin 5 × 10^−9M + NDGA 10^−5M), 48.8%; in the assay with neonatal mouse calvariae (Mus musculus, TNF 2 × 10^−10M + NDGA 10^−5M, read-out: % Inhibition) it was 43.2%. Also, the inhibition at 10 µM in the assay with neonatal mouse calvariae (Mus musculus, WR14 LPS 50 ng/ml + NDGA 10^−5M, read-out: % Inhibition) was 57.6%. The “inhibition of PTH-induced bone resorption (in words)” value with neonatal mouse calvariae (PTH as factor) is recorded as “One out of three experiments showed significant inhibition”. For the same compound, in the assay on neonatal mouse calvariae (TNF as factor), the “inhibition of TNF-induced bone resorption (in words)” value is listed as “significantly inhibits”. Moreover, in the assay with neonatal mouse calvariae (lymphotoxin as factor), the “inhibition of lymphotoxin-induced bone resorption (in words)” value is given as “significantly inhibits”. Moreover, the “NDGA inhibition of lipopolysaccharide-induced bone resorption” value in the assay with neonatal mouse calvariae (two different preparations of lipopolysaccharide) is on record as “Greater than 50%”. Further, in the assay on isolated rat osteoclasts (20 hours), the “inhibition of PTH and PTHrP-induced bone resorption” value is “inhibition of the bone resorption was seen”. Further, the “order of inhibitory effectiveness” value with isolated rat osteoclasts (PTH and PTHrP-induced bone resorption) was “ZM230487>MK886>NDGA”. The “effect on production of C433 activity” value in the assay with C433 cells was “completely blocked”.
Turning to `CCCCC/C=C\C\C=C/C=C/C=C/[C@@H](SC[C@H](NC(=O)CC[C@H](N)C(=O)O)C(=O)NCC(=O)O)[C@@H](O)CCCC(=O)O` [LTC4, leukotriene C4], the “stimulation of pit formation” value in assay [1] is “stimulated”.
